Consider four compounds from patent publication US7273848B2, “Apolipoprotein A-I agonists and their use to treat dyslipidemic disorders” (priority 1997, dated 2007).

Data set [1] in a line: Circular dichroism helicity determination. Type of data set: physicochemical. Conditions: percent helicity; for He (%) TFE: 5 μM peptide, 90% vol TFE; for He (%) TFE / He (%) SUVs: 37° C.; for He (%) free: unbound peptide 5 μM in 5 mM phosphate buffer, pH 7.4, 37° C.; for He (%) SUVs: peptide-SUV complexes (20:1 EPC:Chol., Ri=30 and Ri=50); for He (%) mics: peptide-micelle complexes, Ri=100, 37° C. On the procedure:
Far UV circular dichroism spectra were recorded between 190 and 260 nm (in 0.5 nm or 0.2 nm increments) with a AVIV62DS spectrometer (AVIV Associates, Lakewood, N.J., USA) equipped with a thermoelectric cell holder and sample changer. The instrument was calibrated with (+)-10-[…]. Between one and three scans were collected for each sample, using 10 cm, 5 cm, 1 cm and 0.1 cm path length quartz Suprasil cells, respectively, for peptide concentrations of 10^−7 M to 10^−4 M. The bandwidth was fixed at 1.5 nm and the scan speed to 1s per wavelength step. The reported data are the mean of at least 2 or 3 independent measurements.
After background substraction, spectra were converted to molar ellipticity (θ) per residue in deg. […] dmol^−1. The peptide concentration was determined by amino acid analysis and also by absorption spectrometry on a Perkin Elmer Lambda 17 UV/Visible spectrophotometer when the peptide contained a chromophore (tryptophane, dansyl, naphtylalanine).
CD spectra were obtained with free, unbound peptide (5 μM in 5 mM phosphate buffer, pH 7.4); with peptide-SUV complexes (20:1 EPC:Chol., Ri=30 and Ri=50); with peptide-micelle complexes (1-myristoyl-2-hydroxy-sn-glycero-3-phosphatidyl choline, Ri=100); and with free, unbound peptide in the presence of 2,2,2-trifluoroethanol (TFE) (5 μM peptide, 90% vol TFE).
The SUVs were obtained by dispersing the lipids (10 mM, 20:1 EPC:Chol., Avanti Polar Lipids, AL) in phosphate buffer (5 mM, pH 7.4) with bubbling N2 for 5 min., followed by sonication (1.5 hr.) in a bath sonicator. The homogeneity of the preparation was checked by FPLC.
The micelles were obtained by dispersing the lipid (6 mM 1-myristoyl-2-hydroxy-sn-glycero-3-phosphatidyl choline, Avanti Polar Lipids, AL) in phosphate buffer (5 mM, pH 7.4) with bubbling N2 for 5 min., followed by vortexing.
To obtain the peptide-SUV complexes, SUVs were added to the peptide (5 μM in 5 mM phosphate buffer, pH 7.4) at a phospholipid-peptide molar ratio (Ri) of 30 or 50.
To obtain the peptide-micelle complexes, micelles were added to the peptide (5 μM in 5 mM phosphate buffer, pH 7.4) at a Ri of 100.
All spectra were recorded at 37° C.
The degree of helicity of the peptides in the various conditions was determined from the mean residue ellipticity at 222 nm (Chen et al., 1974, Biochemistry 13:3350-3359) or by comparing the CD spectra obtained to reference spectra available on databases (16 helical reference spectra from Provencher & Glockner, 1981, Biochemistry 20:33-37; denatured protein reference spectra from Venyaminov et al., 1993, Anal. Biochem. 214:17-24) using the CONTIN curve-fitting algorithm version 2DP, CD-1 pack (August 1982) (Provencher, 1982, Comput. Phys. Commun. 27:213-227, 229-242). Acceptable fit was determined using the statistical analysis methodology provided by the CONTIN algorithm. The error of all methods was ±5% helicity.
(Circular dichroism is the unequal absorption of left and right circularly polarised light.)

Data set [2] deals with T1, LCAT (purified from human plasma) (Homo sapiens, UniProt P04180).
T1 construct: from tissue; host or cells: human plasma
T1 sequence (P04180 25-440): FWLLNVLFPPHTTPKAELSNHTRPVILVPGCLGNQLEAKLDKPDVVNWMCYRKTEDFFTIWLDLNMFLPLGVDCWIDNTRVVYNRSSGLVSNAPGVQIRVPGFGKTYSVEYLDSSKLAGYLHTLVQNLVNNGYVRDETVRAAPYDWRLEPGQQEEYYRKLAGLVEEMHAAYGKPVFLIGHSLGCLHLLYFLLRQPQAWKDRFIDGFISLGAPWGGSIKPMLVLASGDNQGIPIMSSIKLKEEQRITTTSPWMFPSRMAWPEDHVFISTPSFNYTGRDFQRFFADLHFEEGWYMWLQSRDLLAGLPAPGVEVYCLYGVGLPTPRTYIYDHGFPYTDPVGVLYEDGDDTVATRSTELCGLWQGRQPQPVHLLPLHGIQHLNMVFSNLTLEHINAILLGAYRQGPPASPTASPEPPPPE
Nature of the data set: LCAT activation assay. The data set is classed as biochemical. The settings on record: LCAT activation as compared with native human ApoA-I (= 100%), equivalent masses. An outline of the steps:
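Substrate SUVs of EPC or POPC with 14C-cholesterol (20:1 molar ratio), in 10 mM Tris, 0.14 M NaCl, 1 mM EDTA, pH 7.4, were preincubated with peptide or equal mass of plasma ApoA-I. Reaction started with human plasma LCAT; activation was measured as cholesterol-to-ester conversion relative to ApoA-I (100%).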

Non-standard residues stand in square brackets, D forms with d. Residues, ends and D or L forms follow the SMILES beside them. Aib = CC(C)(N)C(=O)O

Turning to `CC(C)C[C@H](NC(=O)[C@H](C)NC(=O)[C@H](CCC(=O)O)NC(=O)[C@H](CC(C)C)NC(=O)C(C)(C)NC(=O)[C@H](CCC(=O)O)NC(=O)[C@H](CC(N)=O)NC(=O)[C@H](CC(C)C)NC(=O)[C@H](CC(C)C)NC(=O)[C@H](CCC(=O)O)NC(=O)[C@H](CCCNC(=N)N)NC(=O)[C@H](Cc1c[nH]c2ccccc12)NC(=O)[C@H](CC(C)C)NC(=O)[C@H](CC(=O)O)NC(=O)[C@H](CC(C)C)NC(=O)[C@@H](NC(=O)[C@@H]1CCCN1)C(C)C)C(=O)N[C@@H](CCCCN)C(=O)N[C@@H](CCC(N)=O)C(=O)N[C@@H](CCCCN)C(=O)N[C@@H](CC(C)C)C(=O)N[C@@H](CCCCN)C(=O)O` [compound 41, PVLDLWRELLNEXLEALKQKLK] (H-PVLDLWRELLNE[Aib]LEALKQKLK-OH), in data set [1], the “He (%) TFE” value was 69%, the “He (%) free” value is given as 53%, the “He (%) SUVs” value was determined as 85% and the “He (%) mics” value is reported as 73%. The “ACTIVITY (%) LCAT” value in data set [2] amounted to 25%.
For `CC(C)C[C@H](NC(=O)[C@H](C)NC(=O)[C@H](CCC(=O)O)NC(=O)[C@H](Cc1c[nH]c2ccccc12)NC(=O)C(C)(C)NC(=O)[C@H](CCC(=O)O)NC(=O)[C@H](CC(N)=O)NC(=O)[C@H](CC(C)C)NC(=O)[C@H](CCCCN)NC(=O)[C@H](CCC(=O)O)NC(=O)[C@H](CCCNC(=N)N)NC(=O)[C@H](Cc1ccccc1)NC(=O)[C@H](CCC(=O)O)NC(=O)[C@H](CC(=O)O)NC(=O)[C@H](CC(C)C)NC(=O)[C@@H](NC(=O)[C@@H]1CCCN1)C(C)C)C(=O)N[C@@H](CCCCN)C(=O)N[C@@H](CCC(N)=O)C(=O)N[C@@H](CCCCN)C(=O)N[C@@H](CC(C)C)C(=O)N[C@@H](CCCCN)C(=O)O` [compound 42, PVLDEFREKLNEXWEALKQKLK] (H-PVLDEFREKLNE[Aib]WEALKQKLK-OH), in that order: 76%, 15%, 27%, 74% and 25%.
Regarding `CC(C)C[C@@H](NC(=O)[C@@H](C)NC(=O)[C@@H](CCC(=O)O)NC(=O)[C@@H](CC(C)C)NC(=O)C(C)(C)NC(=O)[C@@H](CCC(=O)O)NC(=O)[C@@H](CC(N)=O)NC(=O)[C@@H](CC(C)C)NC(=O)[C@@H](CCCCN)NC(=O)[C@@H](CCC(=O)O)NC(=O)[C@@H](CCCNC(=N)N)NC(=O)[C@@H](Cc1ccccc1)NC(=O)[C@@H](CCC(=O)O)NC(=O)[C@@H](CC(=O)O)NC(=O)[C@@H](CC(C)C)NC(=O)[C@H](NC(=O)[C@H]1CCCN1)C(C)C)C(=O)N[C@H](CCCCN)C(=O)N[C@H](CCC(N)=O)C(=O)N[C@H](CCCCN)C(=O)N[C@H](CC(C)C)C(=O)N[C@H](CCCCN)C(=O)O` [compound 44, pvldefreklneXlealkqklk] (H-[dP][dV][dL][dD][dE][dF][dR][dE][dK][dL][dN][dE][Aib][dL][dE][dA][dL][dK][dQ][dK][dL][dK]-OH), in data set [1], the “He (%) free” value is 20% and the “He (%) mics” value turned out to be 86%. For the same compound, in data set [2], the “ACTIVITY (%) LCAT” value is listed as 25%.
Consider `CC(C)C[C@H](NC(=O)[C@H](C)NC(=O)[C@H](CCC(=O)O)NC(=O)[C@H](CC(C)C)NC(=O)C(C)(C)NC(=O)[C@H](CCC(=O)O)NC(=O)[C@H](CC(N)=O)NC(=O)[C@H](CC(C)C)NC(=O)[C@H](CCCCN)NC(=O)[C@H](CCC(=O)O)NC(=O)[C@H](CCCNC(=N)N)NC(=O)[C@H](Cc1ccccc1)NC(=O)[C@H](CCC(=O)O)NC(=O)[C@H](CC(=O)O)NC(=O)[C@H](CC(C)C)NC(=O)[C@@H](NC(=O)[C@@H]1CCCN1)C(C)C)C(=O)N[C@@H](CCCCN)C(=O)N[C@@H](CCC(N)=O)C(=O)N[C@@H](CCCCN)C(=O)N[C@@H](CC(C)C)C(=O)N[C@@H](CCCCN)C(=O)O` [compound 45, PVLDEFREKLNEXLEALKQKLK] (H-PVLDEFREKLNE[Aib]LEALKQKLK-OH), for which, in data set [1], the “He (%) TFE” value turned out to be 86%, the “He (%) free” value is 24%, the “He (%) SUVs” value was 25% and the “He (%) mics” value was 84%. Also, in data set [2], the “ACTIVITY (%) LCAT” value was 24%.
